Structures can show the parent of a compound that is named as a salt.
Experiments:
yellow fever virus (YFV) = assay: microbe, parasite or virus in culture; assay type: cell-based; settings: Yellow fever virus, Vero C1008, read-out: Antiviral Activity (EC50) YFV VeroE6
Zika virus (ZIKV) = assay: Antiviral CPE assay, ZIKV in VeroE6; assay type: cell-based; settings: Zika virus, Vero C1008; VeroE6 host cells
Sindbis virus (SINDV) = assay: Antiviral CPE assay, SINDV in VeroE6; assay type: cell-based; settings: Sindbis virus, Vero C1008; VeroE6 host cells
[1] = tested on: Semliki Forest virus (SFV); assay: Antiviral CPE assay, SFV in VeroE6; assay type: cell-based; settings: Semliki Forest virus, Vero C1008; VeroE6 host cells
in vitro [2] = settings: African green monkey
[3] = tested on: Capan-1 pancreatic adenocarcinoma cells; assay: Antiproliferative activity, Capan-1 cells; assay type: cell-based, human; settings: Capan-1, 72 h incubation
Experimental: (§1) All prepared imidazo[4,5-b]pyridines were tested for their antiproliferative activity against the following cancer cell lines: LN-229—glioblastoma, Capan-1—pancreatic adenocarcinoma, HCT-116—colorectal carcinoma, NCI-H460—lung carcinoma, DND-41—acute lymphoblastic leukemia, HL-60—acute myeloid leukemia, K-562—chronic myeloid leukemia, and Z-138—non-Hodgkin lymphoma cancer cells. An overview of the results is presented in Table 2 as IC50 values (50% inhibitory concentration). An established antitumor drug, etoposide (ETO), was included for comparison.
(§2) For proliferation assays, the human cancer cell lines used in this manuscript, namely Capan-1, HCT-116, NCI-H460, LN-229, HL-60, K-562, and Z-138, were acquired from the American Type Culture Collection (ATCC, Manassas, VA, USA), while the DND-41 cell line was purchased from the Deutsche Sammlung von Mikroorganismen und Zellkulturen (DSMZ Leibniz-Institut, Braunschweig, Germany). Culture media were purchased from Gibco (Gibco Life Technologies, Merelbeke, Belgium) and supplemented with 10% fetal bovine serum (HyClone, Cytiva, Marlborough, MA, USA). Adherent cell lines LN-229, HCT-116, NCI-H460, and Capan-1 cells were seeded in 384-well tissue culture plates (Greiner, Kremsmünster, Austria) at a density between 500 and 1500 cells per well (500 cells per well for Capan-1, 1000 cells per well for LN-229 and HCT-116, and 1500 cells per well for NCI-H460). The cells were treated with seven different concentrations of the test compounds in a 5-fold dilution series ranging from 100 to 0.006 µM after overnight incubation. Suspension cell lines HL-60, K-562, Z-138, and DND-41 were seeded at densities ranging from 2500 to 5500 cells per well (2500 cells per well for HL-60, K-562, and Z-138, and 5500 cells per well for DND-41) in 384-well culture plates containing the test compounds at the same concentration points. All conditions were incubated for 72 h before measuring the cell viability by the CellTiter 96® AQueous Non-Radioactive Cell Proliferation Assay (Promega, Madison, WA, USA) according to the manufacturer’s instructions. After 3 h, absorbance of all conditions was measured at 490 nm using a SpectraMax Plus 384 (Molecular Devices, San Jose, CA, USA), and the OD values were used to calculate the 50% inhibitory concentration (IC50). Compounds were tested in two independent experiments.

[4] = tested on: HCT-116 colorectal carcinoma cells; assay: Antiproliferative activity, HCT-116 cells; assay type: cell-based, human; settings: HCT-116, 72 h incubation
Experimental: as §1, §2

[5] = tested on: LN-229 glioblastoma cells; assay: Antiproliferative activity, LN-229 cells; assay type: cell-based, human; settings: LN-229, 72 h incubation
Experimental: as §1, §2

[6] = tested on: NCI-H460 lung carcinoma cells; assay: Antiproliferative activity, NCI-H460 cells; assay type: cell-based, human; settings: NCI-H460, 72 h incubation
Experimental: as §1, §2

[7] = tested on: DND-41 acute lymphoblastic leukemia cells; assay: Antiproliferative activity, DND-41 cells; assay type: cell-based, human; settings: DND-41, 72 h incubation
Experimental: as §1, §2

[8] = tested on: HL-60 acute myeloid leukemia cells; assay: Antiproliferative activity, HL-60 cells; assay type: cell-based, human; settings: HL-60, 72 h incubation
Experimental: as §1, §2

[9] = tested on: K-562 chronic myeloid leukemia cells; assay: Antiproliferative activity, K-562 cells; assay type: cell-based, human; settings: K-562, 72 h incubation
Experimental: as §1, §2

[10] = tested on: Z-138 non-Hodgkin lymphoma cells; assay: Antiproliferative activity, Z-138 cells; assay type: cell-based, human; settings: Z-138, 72 h incubation
Experimental: as §1, §2

[11] = tested on: respiratory syncytial virus (RSV) A; assay: Antiviral CPE assay, RSV in Hep-2; assay type: cell-based; settings: human respiratory syncytial virus; Hep-2 host cells
[12] = tested on: human coronavirus HCoV-229E; assay: organism not typed; assay type: cell-based, human coronavirus 229E; settings: HEL 299 host cells; read-out: Antiviral Activity (EC50) HCoV 229E HEL 299
[13] = tested on: human coronavirus HCoV-OC43; assay: Antiviral CPE assay, HCoV-OC43 in HEL 299; assay type: cell-based; settings: Betacoronavirus 1, OC43; HEL 299 host cells
[14] = tested on: human coronavirus HCoV-NL63; assay: Antiviral CPE assay, HCoV-NL63 in Hep3B; assay type: cell-based; settings: Hep3B host cells
[15] = tested on: influenza A/H1N1 (A/Ned/378/05); assay: Antiviral CPE assay, influenza A/H1N1 in MDCK; assay type: cell-based; settings: Influenza A virus, MDCK host cells
[16] = tested on: influenza A/H3N2 (A/HK/7/87); assay: Antiviral CPE assay, influenza A/H3N2 in MDCK; assay type: cell-based; settings: Influenza A virus, MDCK host cells
[17] = tested on: influenza B (B/Ned/537/05); assay: Antiviral CPE assay, influenza B in MDCK; assay type: cell-based; settings: Influenza B virus; MDCK host cells
[18] = tested on: herpes simplex virus-1 (HSV-1 KOS); assay: Antiviral CPE assay, HSV-1 in HEL 299; assay type: cell-based; settings: Human alphaherpesvirus 1; HEL 299 host cells
in vitro [19] = settings: dog

Structure (SMILES) | IC50 ([3]; Homo sapiens, CAPAN-1, 72 h) [µM] | IC50 ([4]; Homo sapiens, HCT-116, 72 h) [µM] | IC50 ([5]; Homo sapiens, LN-229, 72 h) [µM] | IC50 ([6]; Homo sapiens, NCI-H460, 72 h) [µM] | IC50 ([7]; Homo sapiens, DND41, 72 h) [µM] | IC50 ([8]; Homo sapiens, HL-60, 72 h) [µM] | IC50 ([9]; Homo sapiens, K562, 72 h) [µM] | IC50 ([10]; Homo sapiens, Z-138, 72 h) [µM] | also measured
CCN(CC)CCCC(C)Nc1ccnc2cc(Cl)ccc12 (stereo not shown) [Chloroquine, chloroquine] |  |  |  |  |  |  |  |  | EC50 (yellow fever virus (YFV)): > 100 µM; EC50 (Zika virus (ZIKV)): 13.4 µM; EC50 (Sindbis virus (SINDV)): 8 µM; EC50 [1]: > 100 µM; CC50 (in vitro [2]): 55.8 µM
c1ccc(-c2cnc3[nH]c(-c4ccccc4)nc3c2)cc1 [Compound 12, 2.6-diphenyl-3H-imidazo[4,5-b]pyridine] | 35.3 | > 100 | > 100 | > 100 | > 100 | 52.3 | > 100 | 30.1 | 
COc1ccc(-c2cnc3[nH]c(-c4ccccc4)nc3c2)cc1 [Compound 14, 6-(4-methoxyphenyl)-2-phenyl-3H-imidazo [4,5-b]pyridine] | > 100 | > 100 | > 100 | > 100 | > 100 | 69.4 | > 100 | > 100 | 
O=[N+]([O-])c1ccc(-c2cnc3[nH]c(-c4ccccc4)nc3c2)cc1 [Compound 16, 6-(4-nitrophenyl)-2-phenyl-3H-imidazo[4,5-b]pyridine] | > 100 | > 100 | > 100 | > 100 | > 100 | 79 | > 100 | 65.2 | 
Nc1ccc(-c2cnc3[nH]c(-c4ccccc4)nc3c2)cc1 [Compound 17, 4-(2-phenyl-3H-imidazo [4,5-b]pyridin-6-yl)aniline] |  | > 100 | 73 | > 100 | 76.4 | 41.5 | 83.2 | 40.9 | IC50 [3]: 26.6 µM
Nc1ccc(-c2cnc3[nH]c(-c4ccccc4)nc3c2)cc1 [Compound 18, 4-(2-phenyl-3H-imidazo [4,5-b]pyridin-6-yl)aniline hydrochloride] |  |  |  |  |  |  |  |  | IC50 [3]: 7.29 µM; IC50 [4]: > 100 µM; IC50 [5]: 63.6 µM; IC50 [6]: > 100 µM; IC50 [7]: 70.9 µM; IC50 [8]: 46.1 µM; IC50 [9]: 84.7 µM; IC50 [10]: 34.8 µM
COc1ccc(-c2cnc3c(c2)nc(-c2ccccc2)n3C)cc1 [Compound 20, 6-(4-methoxyphenyl)-3-methyl-2-phenyl-3H-imidazo [4,5-b]pyridine] | > 100 | > 100 | > 100 | > 100 | > 100 | 62.5 | > 100 | 86 | 
Cn1c(-c2ccccc2)nc2cc(-c3ccc(C#N)cc3)cnc21 [Compound 21, 4-(3-methyl-2-phenyl-3H-imidazo [4,5-b]pyridin-6-yl)benzonitrile] | > 100 | > 100 | > 100 | > 100 | > 100 | 83.1 | > 100 | 62.8 | 
Cn1c(-c2ccccc2)nc2cc(-c3ccc([N+](=O)[O-])cc3)cnc21 [Compound 23, 3-methyl-6-(4-nitrophenyl)-2-phenyl-3H-imidazo [4,5-b]pyridine] | > 100 | > 100 | > 100 | > 100 | > 100 | 89.9 | > 100 | 72.9 | 
Cn1c(-c2ccccc2)nc2cc(-c3ccc(N)cc3)cnc21 [Compound 24, 4-(3-methyl-2-phenyl-3H-imidazo [4,5-b]pyridin-6-yl)aniline] | 63 | > 100 | 55.8 | 81.6 | 78.5 | 36.2 | 62.2 |  | IC50 [10]: 54.4 µM
Cn1c(-c2ccccc2)nc2cc(-c3ccc(N)cc3)cnc21 [Compound 25, 4-(3-methyl-2-phenyl-3H-imidazo [4,5-b]pyridin-6-yl)aniline hydrochloride] |  |  |  |  |  |  |  |  | IC50 [3]: 67.3 µM; IC50 [4]: 56.2 µM; IC50 [5]: 59.1 µM; IC50 [6]: > 100 µM; IC50 [7]: > 100 µM; IC50 [8]: 23.7 µM; IC50 [9]: 39 µM; IC50 [10]: 25.5 µM
COc1cc([C@@H]2c3cc4c(cc3[C@@H](O[C@@H]3O[C@@H]5CO[C@@H](C)O[C@H]5[C@H](O)[C@H]3O)[C@H]3COC(=O)[C@H]23)OCO4)cc(OC)c1O [ETO, etoposide, reference compound] | 0.1 | 2.55 | 1.37 | 4.6 | 0.6 | 0.37 | 2.35 | 0.05 | 
COc1c(C)c2c(c(O)c1C/C=C(\C)CCC(=O)O)C(=O)OC2 [Mycoph. acid, mycophenolic acid] |  |  |  |  |  |  |  |  | EC50 [11]: 0.8 µM; EC50 (yellow fever virus (YFV)): 0.6 µM; EC50 (Zika virus (ZIKV)): 25.2 µM; EC50 (Sindbis virus (SINDV)): > 100 µM; EC50 [1]: > 100 µM; CC50 (in vitro [2]): > 100 µM
NC(=O)c1ncn([C@@H]2O[C@H](CO)[C@@H](O)[C@H]2O)n1 [Ribavirin, ribavirin] |  |  |  |  |  |  |  |  | EC50 [12]: 83.3 µM; EC50 [13]: 97.6 µM; EC50 [14]: 45.8 µM; EC50 [15]: 6.6 µM; EC50 [16]: 12.3 µM; EC50 [17]: 5.2 µM; EC50 [11]: 35.7 µM; EC50 [18]: 217 µM; EC50 (yellow fever virus (YFV)): 235 µM; CC50 (in vitro [19]): > 250 µM; CC50 (in vitro [2]): > 250 µM
CC(N)C12CC3CC(CC(C3)C1)C2 (stereo not shown) [Rimantadin, rimantadine] |  |  |  |  |  |  |  |  | EC50 [15]: 0.08 µM; EC50 [16]: 0.06 µM; EC50 [17]: > 100 µM; CC50 (in vitro [19]): > 100 µM
CC(=O)N[C@H]1[C@H]([C@H](O)[C@H](O)CO)OC(C(=O)O)=C[C@@H]1N=C(N)N [Zanamivir, zanamivir] |  |  |  |  |  |  |  |  | EC50 [15]: 0.3 µM; EC50 [16]: 68.1 µM; EC50 [17]: 0.5 µM; CC50 (in vitro [19]): > 100 µM
